From patent US11378572B2, “Therapeutic agent for immune cell migration-caused disease and method for screening same” (ZYMEDI CO., LTD., priority 2017, dated 2022)

Key:
[1] = test system: PAH model; assay: Monocrotaline PAH model, anti-KRS antibody; type: in vivo, SD rats
From the text: To induce PAH in 7-week-old SD rats (Orient bio), 60 mpk of MCT (monocrotaline) was subcutaneously injected. Then rats were divided into 4 groups (5 animals in each group), and administered with either of 1 mpk of mock human IgG (Thermo Fisher Scientific, negative control), 1 mpk or 10 mpk of anti-KRS antibody (N3 antibody), 25 mpk of sildenafil (positive control) for 3 weeks. All antibodies were intravenously injected twice a week and sildenafil was orally administered everyday.
Three weeks later, rats were anesthetized with isoflurane, and blood flow and pressure were measured using an MPVS cardiovascular pressure and volume system (model name: MPVS Ultra, manufactured by Millar Instruments). Right ventricular systolic pressure (RVESP) and diastolic pressure, left ventricular systolic pressure and diastolic pressure were measured using a dedicated catheter (Mikro-Tip rat pressure catheter, manufactured by Millar Instruments). Cardiac output was measured using a perivascular blood flow probe (Transonic® Flowprobes, manufactured by […]), and experimental techniques were performed in the same manner as described in the literature: Pacher P, Nagayama T, Mukhopadhyay P, Batkai S, Kass D A. Measurement of cardiac function using pressure-volume conductance catheter technique in mice and rats. Nat Protoc 2008, 3(9):1422-34.
Collected lungs were fixed in PFA (paraformaldehyde) according to a conventional procedure, and then embedded in paraffin through water washing, dehydration, and tissue clearing processes. Lung tissue paraffin blocks of rats were cut to a thickness of […] and slides were prepared. Thereafter, staining was performed as follows. First, slides were treated with xylene 3 times for 5 minutes, followed by treatments with 100% ethanol, 95% ethanol, 90% ethanol, 70% ethanol, DW for 2 minutes in this order and washed with PBS for 5 minutes. After treatment with 0.3% H2O2, slides were washed twice with PBS for 5 minutes. After soaking in 0.01M citrate buffer and heating, slides were washed with PBS-T (0.03% tween 20). After 30 minutes blocking at room temperature (2% BSA & 2% goat serum in PBS), tissues were stained with anti-CD68 antibody (1:200, ED1 clone, Abcam) overnight at 4° C. After washing three times with PBS-T for 5 minutes, tissues were treated with polymer-HRP anti-mouse envision kit (DAKO) for 1 hour at 4° C. After washing three times with PBS-T, color was developed by treatment with DAB substrate buffer and DAB chromogen 20. Thus stained tissues were treated with Mayer's hematoxylin (Sigma) for 1 minute, and then treated twice for 2 minutes in the order of 70% ethanol, 90% ethanol, 95% ethanol, and 100% ethanol. Finally, xylene was treated three times for 5 minutes and observed with an optical microscope.

[2] = test system: RAW 264.7 cells; assay: Transwell migration assay of monocytes/macrophages; type: cell-based
Description: Among several extracellular matrix (ECM), it was examined which ECM promotes the migration and infiltration of immune cells, typically monocytes/macrophages. A transwell migration assay was performed using collagen (Col), fibronectin (FN) and laminin (LN) as extracellular matrices, and detailed methods were as follows. Transwells (Corning, #3421-5 mm) were coated with gelatin (0.5 mg/ml) and RAW 264.7 cells (1×10^5 cells/well) were seeded into the top chambers. Serum free DMEM (500 μl) containing 10 μg/ml of laminin (laminin mixture, Biolamina), fibronectin or collagen, respectively, was placed in the bottom chambers. After 24 hours, cells were fixed with 70% methanol for 30 minutes and stained with 50% hematoxylin for 30 minutes. After removing non-migrating cells from the top of the membrane with a cotton swab, the membrane was taken and mounted on the slide. Migrating cells on the underside of the membrane were observed and quantified under a high magnification microscope.
Effect of laminin subtypes on the immune cell migration and infiltration was evaluated. A transwell migration assay was performed in the same manner as in Example 1 using LN111, LN211, LN221, LN411, LN421, LN511, and LN521 as various laminin subtype proteins (purchased from Biolamina). Specific sequences of laminin subtypes are referred to α4 chain of SEQ ID NO:4, α2 chain of SEQ ID NO: 10, α5 chain of SEQ ID NO: 11, β2 chain of SEQ ID NO:6, β1 chain of SEQ ID NO: 12, γ1 chain of SEQ ID NO: 8. according to the chain forming each laminin subtype,
For each of the transformed macrophages, a transwell migration assay was performed in the same manner as in Example 1 using 1 μg/ml of laminin 421.
Thus identified agents as inhibiting the translocation of KRS to the plasma membrane was added to the LN421-treated macrophages to perform a transwell migration assay. […] Migrating cells on the underside of the membrane were observed and quantified under a high magnification microscope. […]

[3] = molecular target: T1, KRS (Mus musculus, UniProt Q99MN1); assay: KRS level in plasma membrane/cytosol fractions by western blot (KRS translocation to the plasma membrane); type: cell-based; conditions: RAW 264.7 cells, LN421 l g/ml, 0, 12, 24 hour
T1 construct: KRS, which is expressed in monocytes/macrophages and usually present in the cytoplasmic domain, translocates to the plasma membrane by LN421 treatment; endogenous in cells; host or cells: RAW 264.7
T1 sequence (Q99MN1 whole entry, the tested form may be a part): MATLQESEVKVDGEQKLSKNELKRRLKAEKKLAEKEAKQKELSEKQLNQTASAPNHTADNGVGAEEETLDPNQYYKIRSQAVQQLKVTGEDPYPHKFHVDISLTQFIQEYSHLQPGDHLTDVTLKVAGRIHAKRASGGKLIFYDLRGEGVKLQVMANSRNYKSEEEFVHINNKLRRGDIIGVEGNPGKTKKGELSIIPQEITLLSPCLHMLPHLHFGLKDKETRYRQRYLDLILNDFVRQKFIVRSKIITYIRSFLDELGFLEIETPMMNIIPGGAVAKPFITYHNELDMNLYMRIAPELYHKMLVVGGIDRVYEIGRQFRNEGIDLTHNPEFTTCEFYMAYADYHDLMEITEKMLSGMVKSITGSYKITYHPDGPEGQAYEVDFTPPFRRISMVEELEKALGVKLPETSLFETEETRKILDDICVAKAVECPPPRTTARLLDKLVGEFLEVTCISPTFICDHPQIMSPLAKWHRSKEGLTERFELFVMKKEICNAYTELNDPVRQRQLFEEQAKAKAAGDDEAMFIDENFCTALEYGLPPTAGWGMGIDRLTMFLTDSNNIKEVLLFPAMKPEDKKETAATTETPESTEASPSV
Description: After dispensing RAW 264.7 cells (2×10^6 cells) in 100 mm dish and incubating for 18 hours, cells were treated with LN421 l g/ml in serum free DMEM media and harvested at 0 hour, 12 hour, 24 hour. Proteins of RAW 264.7 cells were separated into the cytosol and membrane fractions using ProteoExtract Subcellular Proteome Extraction Kit (Calbiotech, cat #539790). Obtained proteins were electrophoresed and transferred to PVDF membrane (Milipore) and blocked with 3% skim milk. KRS was then detected by western blot. Specifically, KRS polyclonal antibody (rabbit, Neomics, Co. Ltd. #NMS-01-0005) was added and reacted for 1 hour. Unbound antibody was removed and the membrane was added and reacted with anti-rabbit secondary antibody (ThermoFisher Scientific, #31460). After reacting with the secondary antibody, films were exposed in the dark room using ECL reagent as a substrate. […]
First, in order to determine whether various KRS inhibitor candidates could exert inhibitory effect on the KRS translocation to the plasma membrane, RAW 264.7 cells (2×10^6 cells) were dispensed in 100 mm dishes and incubated for 18 hours, followed by treatment with laminin 421 1 μg/ml in serum free DMEM, and 100 nM of each of various KRS inhibitor candidates, and cells were further incubated for 12 hours. […] Afterwards, KRS was detected by western blot, and the specific method were as described in Example 3. […]

[4] = MCT + sildenafil 25 mpk oral everyday, 3 weeks (n = 5)

CCCc1nn(C)c2c(=O)[nH]c(-c3cc(S(=O)(=O)N4CCN(C)CC4)ccc3OCC)nc12 [sildenafil]
CO ([1]; MCT + sildenafil 25 mpk oral everyday, 3 weeks (n = 4)): 49.6 ± 17.7 mL/min
LVEDP [1, 4]: 3.6 ± 2.3 mmHg
LVESP [1, 4]: 83.2 ± 4.7 mmHg
RVEDP [1, 4]: 2.6 ± 1.3 mmHg
RVESP [1, 4]: 48.4 ± 9.6 mmHg
body weight, absolute change ([1]; MCT + sildenafil (n = 5)): 104.1 ± 26.4 g
body weight, relative change ([1]; MCT + sildenafil (n = 5)): 49.8 ± 10.5%
findings of D-shaped left ventricle (echocardiography) ([1]; number of animals with finding): three mice

LN421: laminin subtype α4β2γ1, purchased from Biolamina [reference compound]
migration of monocytes/macrophages among laminin subtypes ([2]; LN111, LN211, LN221, LN411, LN421, LN511, LN521 compared): specifically reacted
level of KRS detection in the plasma membrane fractions [3]: increased

laminin [reference compound]
migration of monocytes/macrophages among extracellular matrices ([2]; 10 μg/ml in bottom chamber, 24 hours, versus collagen, fibronectin): most strongly promoted
